The values below come from BindingDB's records for doi:10.1111/cbdd.12241 (Chengde Medical University, 2014).

The target of the experiment is T1, Glycogen phosphorylase, muscle form (Oryctolagus cuniculus, UniProt P00489).
T1 sequence (P00489 whole entry): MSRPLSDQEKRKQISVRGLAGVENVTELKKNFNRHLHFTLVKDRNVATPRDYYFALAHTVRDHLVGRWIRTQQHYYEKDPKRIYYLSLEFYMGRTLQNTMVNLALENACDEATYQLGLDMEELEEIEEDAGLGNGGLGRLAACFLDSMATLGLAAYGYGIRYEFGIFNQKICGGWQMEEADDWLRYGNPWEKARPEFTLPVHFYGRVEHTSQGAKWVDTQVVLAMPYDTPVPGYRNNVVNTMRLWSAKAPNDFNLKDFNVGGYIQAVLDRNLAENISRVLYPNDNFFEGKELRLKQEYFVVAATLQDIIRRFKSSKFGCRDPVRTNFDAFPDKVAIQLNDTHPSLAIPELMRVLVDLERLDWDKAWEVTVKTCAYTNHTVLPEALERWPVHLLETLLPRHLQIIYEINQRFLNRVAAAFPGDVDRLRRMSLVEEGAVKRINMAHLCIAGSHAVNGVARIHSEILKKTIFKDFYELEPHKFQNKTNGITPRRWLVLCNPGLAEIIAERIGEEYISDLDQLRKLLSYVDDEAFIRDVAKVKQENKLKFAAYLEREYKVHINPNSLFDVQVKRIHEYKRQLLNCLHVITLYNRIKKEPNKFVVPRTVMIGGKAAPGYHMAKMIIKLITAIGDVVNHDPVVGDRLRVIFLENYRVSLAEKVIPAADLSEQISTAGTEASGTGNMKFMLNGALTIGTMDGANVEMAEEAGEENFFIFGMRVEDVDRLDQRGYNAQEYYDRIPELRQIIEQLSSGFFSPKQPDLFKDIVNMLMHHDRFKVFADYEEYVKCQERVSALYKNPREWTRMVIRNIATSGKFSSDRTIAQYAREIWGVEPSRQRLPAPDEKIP
The experiment is described as follows: Inhibition Assay. Conditions: pH 7.2; 22 °C. The procedure:
Each compound was dissolved in DMSO and diluted at different concentrations. RMGPa was added to 100 µL of buffer (50 mM Hepes pH 7.2, 100 mM KCl, 2.5 mM MgCl2, 0.5 mM glucose-1-phosphate, 1 mg/mL glycogen, and compound in 96-well microplates. Reaction was […] by the addition of 150 µL of 1 M HCl containing 10 mg/mL ammonium molybdate and 0.38 mg/mL malachite green and run for 25 min at 22 C.

A word on the IC50: it is the concentration that inhibits the measured activity by half. A high value points to a need for much substance. `CCCCCCCCCC(=O)OCc1cn(CC(=O)O[C@H]2CC[C@]3(C)[C@H]4CC=C5[C@@H]6CC(C)(C)CC[C@]6(C(=O)O)CC[C@@]5(C)[C@]4(C)CC[C@H]3C2(C)C)nn1` [3b-[2-(4-decanoyloxymethyl-1H-1,2,3-triazol-1-yl)acetoxy]olean-12-en-28-oic acid (Compound 8b)] showed a half-inhibitory concentration (IC50) of 25.6 µM.

`CCCCCCCCCCCC(=O)OCc1cn(CC(=O)O[C@H]2CC[C@]3(C)[C@H]4CC=C5[C@@H]6CC(C)(C)CC[C@]6(C(=O)O)CC[C@@]5(C)[C@]4(C)CC[C@H]3C2(C)C)nn1` [3b-[2-(4-dodecanoyloxymethyl-1H-1,2,3-triazol-1-yl)acetoxy]olean-12-en-28-oic acid (Compound 8c)] registered a half-inhibitory concentration (IC50) of 8.4 µM. Under `CCCCCCCCC(=O)OCc1cn(CC(=O)O[C@H]2CC[C@]3(C)[C@H]4CC=C5[C@@H]6CC(C)(C)CC[C@]6(C(=O)O)CC[C@@]5(C)[C@]4(C)CC[C@H]3C2(C)C)nn1` [3b-[2-(4-nonanoyloxymethyl-1H-1,2,3-triazol-1-yl)acetoxy]olean-12-en-28-oic acid (Compound 8a)] stands 77.1 µM; under `CCCCCCCCCCCCCCCC(=O)OCc1cn(CC(=O)O[C@H]2CC[C@]3(C)[C@H]4CC=C5[C@@H]6CC(C)(C)CC[C@]6(C(=O)O)CC[C@@]5(C)[C@]4(C)CC[C@H]3C2(C)C)nn1` [3b-[2-(4-palmitoyloxymethyl-1H-1,2,3-triazol-1-yl)acetoxy]olean-12-en-28-oic acid (Compound 8d)], 221 µM. The molecule `CCCCCCCCCCCCCCCCCC(=O)OCc1cn(CC(=O)O[C@H]2CC[C@]3(C)[C@H]4CC=C5[C@@H]6CC(C)(C)CC[C@]6(C(=O)O)CC[C@@]5(C)[C@]4(C)CC[C@H]3C2(C)C)nn1` [3b-[2-(4-stearoyloxymethyl-1H-1,2,3-triazol-1-yl)acetoxy]olean-12-en-28-oic acid (Compound 8e)] yielded an IC50 of 11.2 µM. Then `COc1ccc(C(=O)OCc2cn(CC(=O)O[C@H]3CC[C@]4(C)[C@H]5CC=C6[C@@H]7CC(C)(C)CC[C@]7(C(=O)O)CC[C@@]6(C)[C@]5(C)CC[C@H]4C3(C)C)nn2)cc1` [3b-{2-[4-(4-methoxybenzoyloxy)methyl-1H-1,2,3-triazol-1-yl]acetoxy}olean-12-en-28-oic acid (Compound 8f)], with 34.6 µM; and `CCCCCCCCCC(=O)OCc1cn(CC(=O)O[C@H]2CC[C@]3(C)[C@H]4CC=C5[C@@H]6CC(C)(C)CC[C@]6(C(=O)OCc6ccccc6)CC[C@@]5(C)[C@]4(C)CC[C@H]3C2(C)C)nn1` [Benzyl 3b-[2-(4-decanoyloxymethyl-1H-1,2,3-triazol-1-yl)acetoxy]olean-12-en-28-oate (Compound 7b)], with 144 µM; and `CCCCCCCCC(=O)OCc1cn(CC(=O)O[C@H]2CC[C@]3(C)[C@H]4CC=C5[C@@H]6CC(C)(C)CC[C@]6(C(=O)OCc6ccccc6)CC[C@@]5(C)[C@]4(C)CC[C@H]3C2(C)C)nn1` [Benzyl 3b-[2-(4-nonanoyloxymethyl-1H-1,2,3-triazol-1-yl)acetoxy]olean-12-en-28-oate (Compound 7a)], with 80.1 µM.

In turn, `CC1(C)CC[C@]2(C(=O)OCc3ccccc3)CC[C@]3(C)C(=CC[C@@H]4[C@@]5(C)CC[C@H](OC(=O)Cn6cc(COC(=O)Cc7ccc8ccccc8c7)nn6)C(C)(C)[C@@H]5CC[C@]43C)[C@@H]2C1` [Benzyl 3b-{2-[4-(2-naphthalen-2-yl)acetoxymethyl-1H-1,2,3-triazol-1-yl]acetoxy}olean-12-en-28-oate (Compound 7g)] came in with a concentration for half-maximal inhibition (IC50) of 23.9 µM. Under `COc1ccc(C(=O)OCc2cn(CC(=O)O[C@H]3CC[C@]4(C)[C@H]5CC=C6[C@@H]7CC(C)(C)CC[C@]7(C(=O)OCc7ccccc7)CC[C@@]6(C)[C@]5(C)CC[C@H]4C3(C)C)nn2)cc1` [Benzyl 3b-{2-[4-(4-methoxybenzoyloxy)methyl-1H-1,2,3-triazol-1-yl]acetoxy}olean-12-en-28-oate (Compound 7f)] stands 38.9 µM. Then `CC1(C)CC[C@]2(C(=O)OCc3ccccc3)CC[C@]3(C)C(=CC[C@@H]4[C@@]5(C)CC[C@H](O)C(C)(C)[C@@H]5CC[C@]43C)[C@@H]2C1` [benzyl (4aS,6aS,6bR,8aR,10S,12aR,12bR,14bS)-10-hydroxy-2,2,6a,6b,9,9,12a-heptamethyl-1,3,4,5,6,7,8,8a,10,11,12,12b,13,14b-tetradecahydropicene-4a-carboxylate (Compound 4)], with 461 µM.
